Measured values from patent US10285938B2 (ISSAR Pharmaceutical, priority 2015, dated 2019).
Like-named read-outs stand apart in the source and are kept apart here. No end group written: not given here.

Columns and labels:
[1] = human, in vivo
From the text: There was an absence of any symptoms or signs of toxicity at the evaluation site and considered a measure of primary efficacy/tolerability was established in this study. […] Treatment Groups (2% and 4%) were similar in efficacy/tolerability and safety parameters studied.

[2] = system: Pseudomonas aeroginosa MTCC 741; format: cell-based
From the text: Whereas, 100% killing of Pseudomonas aeroginosa was observed on exposure to the test compound for 1 hr at pH 8.4 and an exposure of 4 hrs was required for 100% killing at pH 7.2.

[3] = system: burn wound healing; set-up: species or system human; conditions: in vivo
From the text: None of the XYLENTRA® treated volunteers developed any adverse reaction.

[4] = subacute toxicity study in rabbits; format: in vivo
[5] = subacute toxicity study in rats; format: in vivo
[6] = system: Staphylococcus aureus MTCC 96; format: cell-based
[7] = system: partial thickness burns
From the text: Patients of either gender with partial thickness burns referred to a tertiary referral center Number of Subjects Enrolled: 160
Multi-center, double-blind, randomized parallel design study in 200 patients of partial thickness burns • 2. […] Participants satisfying the inclusion criteria were hospitalized for the study duration and were randomized in a 1:1 ratio to receive either SSD 1% or XYLENTRA®. Randomization was done specific for each center. Allocation concealment was maintained. The drugs were topically administered once daily for 4 weeks or until complete wound healing, whichever was earlier. The patients were discharged only after complete healing of wound and recovery from other secondary effects of burns. A follow up was done on the 3rd month to record the frequency of scars^10, keloids or contracture formation. • b. […] Either sex • 2. Age 18-60 years • 3. Those diagnosed with partial thickness thermal burns as per clinically • 4. Total surface area of the burn 10-20% as per Wallace rule of nine • 5. Willing to give written informed consent. • 6. Females of child-bearing potential with a negative urine pregnancy test on Day 1 • 7. […]
Safety was measured by pretreatment and post treatment biochemical investigations (Hematological variables) and physical examination. Subjects were thoroughly monitored for adverse effects.

Sequence: FAKKFAKKFAKFAKKFAKFAFAF [XYLENTRA®]
- mild redness and itching [1]: 2/24
- safety of cream [1]: safe
- systemic absorption (pharmacokinetic data by HPLC) [1]: no systemic absorption
- killing of Pseudomonas aeroginosa ([2]; MTCC 741, 1 h, pH 8.4): 100%
- killing of Pseudomonas aeroginosa ([2]; MTCC 741, 4 h, pH 7.2): 100%
- systemic absorption (pharmacokinetic data) [3]: absence of systemic absorption
- volunteers who developed any adverse reaction [3]: None
- mortality [4]: No mortality
- abnormalities in physical, physiological, biochemical and histo-pathological parameters ([4]; application of the peptide): No abnormalities
- mortality [5]: No mortality
- abnormalities in physical, physiological, biochemical and histo-pathological parameters ([5]; application of the peptide): No abnormalities
- killing of Staphylococcus aureus ([6]; MTCC 96, 1 h, 1 μM, pH 7.2): 100%
- killing of Staphylococcus aureus ([6]; MTCC 96, 1 h, 5 μM, pH 7.2): 100%
- killing of Staphylococcus aureus ([6]; MTCC 96, 4 h, pH 8.4): 100%
- serious adverse events and deaths ([7]; Phase III): No serious adverse events and no deaths
- nature of treatment emergent adverse events ([7]; mostly skin related disorders): mild
